Assay results as given in BindingDB's records for doi:10.1021/jm8009124 (University of Connecticut At Storrs, 2008).

Molecular target: T1, Bifunctional dihydrofolate reductase-thymidylate synthase (Cryptosporidium parvum, UniProt Q27552)
T1 sequence (Q27552 whole entry): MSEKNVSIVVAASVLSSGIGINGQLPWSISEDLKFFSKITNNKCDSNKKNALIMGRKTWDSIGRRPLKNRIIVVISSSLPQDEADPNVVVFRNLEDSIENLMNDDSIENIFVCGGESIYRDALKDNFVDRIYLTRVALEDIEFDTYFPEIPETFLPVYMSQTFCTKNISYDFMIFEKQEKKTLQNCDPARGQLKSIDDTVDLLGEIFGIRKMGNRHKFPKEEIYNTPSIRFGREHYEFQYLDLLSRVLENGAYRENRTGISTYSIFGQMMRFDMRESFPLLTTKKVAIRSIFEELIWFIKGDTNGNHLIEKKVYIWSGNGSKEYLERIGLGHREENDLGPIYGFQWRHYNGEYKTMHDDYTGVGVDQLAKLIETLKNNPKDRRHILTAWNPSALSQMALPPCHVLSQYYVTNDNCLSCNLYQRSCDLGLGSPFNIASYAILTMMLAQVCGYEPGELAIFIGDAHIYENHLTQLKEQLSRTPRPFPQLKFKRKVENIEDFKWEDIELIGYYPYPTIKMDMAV
Test: DHFR Inhibition Assay
Conditions: pH 7; 25 °C
Experimental: Enzyme activity assays were performed by monitoring the change in UV absorbance at 340 nm. Enzyme assays were performed at least four times. IC50 values and their standard deviations were calculated in the presence of varying ligand concentration.

Compound	IC50 [nM]
COc1cc(-c2ccccc2)cc([C@@H](C)C#Cc2c(C)nc(N)nc2N)c1 [5-[(3R)-3-(3-methoxy-5-phenylphenyl)but-1-yn-1-yl]-6-methylpyrimidine-2,4-diamine]	1.1
COc1cc(-c2ccccc2)cc([C@H](C)C#Cc2c(C)nc(N)nc2N)c1 [5-[(3S)-3-(3-methoxy-5-phenylphenyl)but-1-yn-1-yl]-6-methylpyrimidine-2,4-diamine]	30
COc1cc(C(C)C#Cc2c(C)nc(N)nc2N)ccc1-c1c(C)cccc1C (stereo unspecified) [5-{3-[4-(2,6-dimethylphenyl)-3-methoxyphenyl]but-1-yn-1-yl}-6-methylpyrimidine-2,4-diamine]	7.4
COc1cc(-c2c(C(C)C)cccc2C(C)C)cc(C(C)C#Cc2c(C)nc(N)nc2N)c1 (stereo unspecified) [5-(3-{3-[2,6-bis(propan-2-yl)phenyl]-5-methoxyphenyl}but-1-yn-1-yl)-6-methylpyrimidine-2,4-diamine]	10
COc1cc(C(C)C#Cc2c(C)nc(N)nc2N)ccc1-c1ccccc1C (stereo unspecified) [5-{3-[3-methoxy-4-(2-methylphenyl)phenyl]but-1-yn-1-yl}-6-methylpyrimidine-2,4-diamine]	36
COc1cc(C(C)C#Cc2c(C)nc(N)nc2N)ccc1-c1ccccc1 (stereo unspecified) [5-[3-(3-methoxy-4-phenylphenyl)but-1-yn-1-yl]-6-methylpyrimidine-2,4-diamine]	19
